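Test compounds were applied to cells in 96-well plates for 48 hours at 5 doses. GI50: concentration for 50% inhibition of growth. At the TGI there is no net growth.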

Some test systems named below: SNB-75 CNS; OVCAR-8 ovarian; SK-MEL-28 melanoma; NCI-H460 lung; RXF 393 renal; KM12 colon; M14 melanoma; MOLT-4 leukemia; UACC-257 melanoma; SK-OV-3 ovarian.
Holding throughout (assay): NCI tumour cell line growth inhibition, 48 h

As for `C(/C=C/c1ccccc1)=Nc1ccc2c(c1)Cc1ccccc1-2`, the TGI with SNB-75 CNS, in the assay on OVCAR-8 ovarian, in the assay with SK-MEL-28 melanoma, with NCI-H460 lung, in the assay with RXF 393 renal and with KM12 colon was over 100 µM each time. Moreover, the TGI in the assay with M14 melanoma is over 100 µM; with MOLT-4 leukemia it was 95 µM.
Consider `CC(=O)N1N=C(c2ccc3ccccc3c2O)CC1c1cccs1` (configuration not stated), for which the TGI was over 100 µM in the assay on UACC-257 melanoma; over 100 µM with SNB-75 CNS; over 100 µM in the assay with OVCAR-8 ovarian; over 100 µM with SK-MEL-28 melanoma; over 100 µM in the assay with NCI-H460 lung; 99.3 µM in the assay on RXF 393 renal. Moreover, the TGI in the assay on SK-OV-3 ovarian is over 100 µM; in the assay with KM12 colon, 46.4 µM; in the assay on M14 melanoma, 39.1 µM; in the assay with MOLT-4 leukemia, 33.5 µM.
`COc1cc(C2S/C(=C/c3ccccc3)C(=O)N2c2ccc(NC(C)=O)cc2)cc(OC)c1OC` (configuration not stated): the TGI was over 100 µM in the assay on UACC-257 melanoma; 37.5 µM in the assay on SNB-75 CNS; 76.9 µM with OVCAR-8 ovarian; over 100 µM with SK-MEL-28 melanoma; 63 µM with RXF 393 renal; over 100 µM in the assay with SK-OV-3 ovarian. In addition, the TGI with KM12 colon was 31 µM; in the assay with M14 melanoma, 56.9 µM; in the assay on MOLT-4 leukemia, 75.6 µM.
With `NC(=S)N/N=C/c1nccc2ccccc12`, the TGI in the assay with SNB-75 CNS was 13.6 µM; with OVCAR-8 ovarian it was over 100 µM; in the assay with SK-MEL-28 melanoma it was over 100 µM; with NCI-H460 lung it was 4.94 µM; with RXF 393 renal, 0.902 µM; with SK-OV-3 ovarian it was 8.52 µM. Also, the TGI with KM12 colon and in the assay on MOLT-4 leukemia was over 100 µM throughout.
For `NC(CSCc1ccc(I)cc1)C(=O)O` (configuration not stated), the TGI in the assay with UACC-257 melanoma, with SNB-75 CNS, with OVCAR-8 ovarian, in the assay on SK-MEL-28 melanoma, in the assay on NCI-H460 lung and with RXF 393 renal was over 100 µM in each case. The TGI in the assay on SK-OV-3 ovarian, with KM12 colon, in the assay on M14 melanoma and with MOLT-4 leukemia was over 100 µM throughout.
Consider `Cc1nc2c(c(=O)[nH]1)S/C(=C(/C#N)c1nc3ccccc3[nH]1)N2c1ccccc1`, for which the TGI in the assay with UACC-257 melanoma, with SNB-75 CNS, in the assay on OVCAR-8 ovarian, in the assay on SK-MEL-28 melanoma, with NCI-H460 lung and with RXF 393 renal was over 100 µM each time. Moreover, the TGI with SK-OV-3 ovarian, with KM12 colon, in the assay on M14 melanoma and in the assay with MOLT-4 leukemia was over 100 µM each time.
For the compound `c1ccc(N2N=C(c3cccc(Nc4ccncc4)c3)CC2c2ccc3c(c2)OCO3)cc1` (configuration not stated), the GI50 in the assay on UACC-257 melanoma is 2 µM; with SNB-75 CNS, 1.47 µM; in the assay with SK-MEL-28 melanoma, 1.66 µM; with NCI-H460 lung it was 1.71 µM; in the assay with RXF 393 renal it was 1.61 µM; in the assay with SK-OV-3 ovarian, 2.73 µM. Besides, the GI50 in the assay on KM12 colon is 1.51 µM; in the assay with M14 melanoma it was 1.63 µM. The TGI with UACC-257 melanoma was 4.09 µM; in the assay on SNB-75 CNS it was 3.74 µM; with SK-MEL-28 melanoma, 3.14 µM; in the assay with NCI-H460 lung, 3.18 µM; in the assay on RXF 393 renal, 3.06 µM; in the assay with SK-OV-3 ovarian, 10.2 µM. Further, the TGI with KM12 colon turned out to be 3.18 µM; in the assay with M14 melanoma it was 3.48 µM.
In the case of `O=C1C(Cl)N(c2cccc(Cl)c2)C1c1c[nH]c2ccccc12` (configuration not stated), the TGI in the assay on UACC-257 melanoma, in the assay with SNB-75 CNS, in the assay on OVCAR-8 ovarian, in the assay on SK-MEL-28 melanoma, with NCI-H460 lung and in the assay on RXF 393 renal was over 100 µM throughout. The TGI in the assay with SK-OV-3 ovarian, in the assay with KM12 colon, with M14 melanoma and in the assay with MOLT-4 leukemia was over 100 µM each time.
On to `CC[C@@H]1ON(C)[C@H]2CN(C)C(=O)[C@@H]12`, for which the TGI in the assay with UACC-257 melanoma, in the assay with OVCAR-8 ovarian, in the assay on SK-MEL-28 melanoma, in the assay with NCI-H460 lung, with SK-OV-3 ovarian and in the assay with M14 melanoma was over 100 µM throughout. Moreover, in the assay with MOLT-4 leukemia, the TGI was over 100 µM.
Turning to `Nc1ccccc1Nc1ccccc1C(=O)[O-].Nc1ccccc1Nc1ccccc1C(=O)[O-].[Zn+2]`, the TGI with UACC-257 melanoma was over 100 µM; with SNB-75 CNS, 49.1 µM; in the assay with OVCAR-8 ovarian it was over 100 µM; with SK-MEL-28 melanoma, over 100 µM; with NCI-H460 lung, over 100 µM; in the assay with SK-OV-3 ovarian, over 100 µM. Moreover, the TGI with KM12 colon, in the assay on M14 melanoma and with MOLT-4 leukemia was over 100 µM throughout.
For `COc1ccc(-c2csc(=Nc3ccccc3)n2CCCN(C)C)cc1`, the TGI in the assay with UACC-257 melanoma is 37.5 µM; in the assay on SNB-75 CNS, 19.3 µM; in the assay with OVCAR-8 ovarian it was 75.6 µM; in the assay with SK-MEL-28 melanoma, 58.1 µM; in the assay on NCI-H460 lung, 78.4 µM; in the assay on RXF 393 renal it was 26.6 µM. Also, the TGI with SK-OV-3 ovarian was determined as 39.4 µM; in the assay with KM12 colon, 29.5 µM; in the assay on M14 melanoma it was 24.4 µM; with MOLT-4 leukemia, 48.9 µM.
As for `COc1cc([C@@H]2c3cc4c(c(O)c3C[C@H]3COC(=O)[C@@H]32)OCO4)cc(OC)c1OC`, the GI50 was over 100 µM in the assay with UACC-257 melanoma; 0.0203 µM with SNB-75 CNS; 0.0564 µM in the assay on NCI-H460 lung; 0.281 µM in the assay with RXF 393 renal; 0.183 µM with SK-OV-3 ovarian; 0.104 µM in the assay with KM12 colon. Also, in the assay on MOLT-4 leukemia, the GI50 is 0.539 µM. In addition, the TGI in the assay with M14 melanoma was over 122 µM.
As for `C=C(C)C(=O)O[C@H]1CC2=C[C@@H](C[C@@]3(C)O[C@@H]3[C@H]3OC(=O)C(=C)[C@@H]31)OC2=O`, the TGI in the assay on UACC-257 melanoma stood at 5.63 µM; in the assay with SNB-75 CNS it was 18.4 µM; in the assay with OVCAR-8 ovarian it was 0.707 µM; in the assay on SK-MEL-28 melanoma, 3.61 µM; in the assay with NCI-H460 lung, 10.6 µM; in the assay with RXF 393 renal, 1.16 µM. Besides, the TGI was 34.9 µM with SK-OV-3 ovarian, 8.6 µM in the assay on KM12 colon and 12.8 µM in the assay with MOLT-4 leukemia. In addition, the GI50 with OVCAR-8 ovarian is 0.406 µM; with SK-MEL-28 melanoma, 1.24 µM; with MOLT-4 leukemia it was 0.789 µM.
For `CCOC1=NC(C(F)(F)F)(C(F)(F)F)N=C(N2CCOCC2)O1`, the TGI in the assay with UACC-257 melanoma, in the assay with SNB-75 CNS, with OVCAR-8 ovarian, with SK-MEL-28 melanoma, with NCI-H460 lung and in the assay on RXF 393 renal was over 100 µM in each case. The TGI with SK-OV-3 ovarian, in the assay with KM12 colon, in the assay with M14 melanoma and with MOLT-4 leukemia was over 100 µM each time.

The values are drawn from PubChem BioAssay (NCI).
